Measured values taken from patent publication US20150105252A1, “SUBSTITUTED PYRAZOLES AS HERBICIDES” (E I DU PONT DE NEMOURS AND COMPANY, priority 2013, published 2015).

Assays:
[1] = system: barnyardgrass; test: Test B flood; type: in vivo, Echinochloa crus-galli; settings: 250 g ai/ha, visual rating on 0 to 100 scale (0 no effect, 100 complete control), 13 to 15 days
In short: (§1)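 Each compound is applied to the floodwater of pots holding 2-leaf seedlings, water standing 3 cm over the soil throughout. Plants stay in a greenhouse 13 to 15 days before visual scoring against controls from 0 (no effect) to 100 (complete control).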

[2] = system: wheat; test: Test A preemergence; type: in vivo, Triticum aestivum; settings: preemergence
In short: (§2)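 Growth medium: loam soil blended with sand. Preemergence treatment used a directed soil spray right after planting; postemergence treatment targeted seedlings at one to two leaves (2–10 cm height). Response was judged by eye relative to untreated plants about 10 days later on a 0–100 control scale.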

[3] = system: ducksalad; test: Test B flood; type: in vivo, Heteranthera limosa; settings: 250 g ai/ha, visual rating on 0 to 100 scale (0 no effect, 100 complete control), 13 to 15 days
In short: as §1

[4] = system: foxtail, giant; test: Test A postemergence; type: in vivo, Setaria faberii
In short: as §2

[5] = system: velvetleaf; test: Test A postemergence; type: in vivo, Abutilon theophrasti
In short: as §2

[6] = system: barnyardgrass; test: Test A postemergence; type: in vivo, Echinochloa crus-galli
In short: as §2

[7] = system: rice; test: Test B flood; type: in vivo, Oryza sativa; settings: 250 g ai/ha, visual rating on 0 to 100 scale (0 no effect, 100 complete control), 13 to 15 days
In short: as §1

[8] = system: corn; test: Test A preemergence; type: in vivo, Zea mays; settings: preemergence
In short: as §2

[9] = system: barnyardgrass; test: Test A preemergence; type: in vivo, Echinochloa crus-galli; settings: preemergence
In short: as §2

[10] = system: velvetleaf; test: Test A preemergence; type: in vivo, Abutilon theophrasti; settings: preemergence
In short: as §2

[11] = system: pigweed; test: Test A preemergence; type: in vivo, Amaranthus retroflexus; settings: preemergence
In short: as §2

[12] = system: rice; test: Test C flooded paddy test; type: in vivo, Oryza sativa; settings: Flood
In short: (§3)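 Visual injury ratings against untreated controls, taken 13 to 15 days after compound was added to paddy water standing 3 cm above the soil.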

[13] = system: foxtail, giant; test: Test A preemergence; type: in vivo, Setaria faberii; settings: preemergence
In short: as §2

[14] = system: corn; test: Test A postemergence; type: in vivo, Zea mays
In short: as §2

[15] = system: wheat; test: Test A postemergence; type: in vivo, Triticum aestivum
In short: as §2

[16] = system: pigweed; test: Test A postemergence; type: in vivo, Amaranthus retroflexus
In short: as §2

[17] = system: crabgrass, large; test: Test A preemergence; type: in vivo, Digitaria sanguinalis; settings: preemergence
In short: as §2

[18] = system: morningglory; test: Test A preemergence; type: in vivo, Ipomoea spp.; settings: preemergence
In short: as §2

[19] = system: sedge, umbrella; test: Test C flooded paddy test; type: in vivo, Cyperus difformis; settings: Flood
In short: as §3

[20] = system: barnyardgrass; test: Test C flooded paddy test; type: in vivo, Echinochloa crus-galli; settings: Flood
In short: as §3

[21] = system: morningglory; test: Test A postemergence; type: in vivo, Ipomoea spp.
In short: as §2

[22] = system: ducksalad; test: Test C flooded paddy test; type: in vivo, Heteranthera limosa; settings: Flood
In short: as §3

[23] = system: sedge, umbrella; test: Test B flood; type: in vivo, Cyperus difformis; settings: 250 g ai/ha, visual rating on 0 to 100 scale (0 no effect, 100 complete control), 13 to 15 days
In short: as §1

[24] = system: crabgrass, large; test: Test A postemergence; type: in vivo, Digitaria sanguinalis
In short: as §2

[25] = 125 g ai/ha, visual injury, 0 to 100 scale, approx. 10 days
[26] = 500 g ai/ha, visual injury after approx. 10 days, 0 to 100 scale (0 no effect, 100 complete control)
[27] = Postemergence, 500 g ai/ha, 0 to 100 scale (0 no effect, 100 complete control)
[28] = postemergence, 125 g ai/ha, about 10 days, visual rating on 0 to 100 scale (0 no effect, 100 complete control)
[29] = 31 g ai/ha, scale 0 to 100 (0 no effect, 100 complete control)
[30] = 62 g ai/ha, scale 0 to 100 (0 no effect, 100 complete control)
[31] = 125 g ai/ha, visual injury approx. 10 days after treatment

CCCCNC(=O)c1cc(CC)n(Cc2ccnc(C(F)(F)F)c2)n1 [Compound 141]
95: Plant response rating, Sedge, Umbrella ([19]; 125 g ai/ha, scale 0 to 100) | Plant response rating, Ducksalad ([22]; 125 g ai/ha, scale 0 to 100) | Plant response rating, Sedge, Umbrella [23]
70: Barnyardgrass plant response rating [9, 25] | Plant response rating, Sedge, Umbrella [19, 30] | Crabgrass, Large plant response rating [24, 28]
90: Wheat plant response rating [2, 26] | Foxtail, Giant plant response rating [4, 27] | Foxtail, Giant plant response rating [13, 25] | Corn plant response rating [14, 27] | Morningglory plant response rating [21, 28] | Crabgrass, Large plant response rating [24, 27]
20: Plant response rating, Rice [7] | Plant response rating, Rice ([12]; 125 g ai/ha, scale 0 to 100) | Plant response rating, Rice ([12]; 250 g ai/ha, scale 0 to 100) | Plant response rating, Barnyardgrass ([20]; 125 g ai/ha, scale 0 to 100)
80: Foxtail, Giant plant response rating [4, 28] | Barnyardgrass plant response rating [6, 27] | Corn plant response rating [8, 26] | Wheat plant response rating [15, 27] | Plant response rating, Ducksalad [22, 30]
40: Barnyardgrass plant response rating [6, 28] | Corn plant response rating [8, 25] | Plant response rating, Ducksalad [22, 29]
10: Velvetleaf plant response rating [10, 25]
60: Pigweed plant response rating [16, 28]
100: Plant response rating, Ducksalad [3] | Velvetleaf plant response rating [5, 27] | Barnyardgrass plant response rating [9, 26] | Pigweed plant response rating [11, 25] | Pigweed plant response rating [11, 26] | Foxtail, Giant plant response rating [13, 26] | Pigweed plant response rating [16, 27] | Crabgrass, Large plant response rating [17, 25] | Crabgrass, Large plant response rating [17, 26] | Morningglory plant response rating [18, 26] | Plant response rating, Sedge, Umbrella ([19]; 250 g ai/ha, scale 0 to 100) | Morningglory plant response rating [21, 27] | Plant response rating, Ducksalad ([22]; 250 g ai/ha, scale 0 to 100)
45: Plant response rating, Barnyardgrass [1]
0: Plant response rating, Rice [12, 29] | Plant response rating, Rice [12, 30] | Plant response rating, Barnyardgrass [20, 29] | Plant response rating, Barnyardgrass [20, 30]
50: Velvetleaf plant response rating [10, 26] | Corn plant response rating [14, 28] | Morningglory plant response rating [18, 25]
35: Plant response rating, Barnyardgrass ([20]; 250 g ai/ha, scale 0 to 100)
30: Wheat plant response rating [2, 25] | Velvetleaf plant response rating [5, 28] | Wheat plant response rating [15, 28] | Plant response rating, Sedge, Umbrella [19, 29]

CCc1cc(C(=O)NC(C)C)nn1Cc1ccnc(OCC(F)(F)F)c1 [Compound 149]
10: Plant response rating, Rice [7] | Barnyardgrass plant response rating [9, 25] | Morningglory plant response rating (0 to 100 scale) [18, 31]
90: Velvetleaf plant response rating [5, 27] | Velvetleaf plant response rating [10, 26] | Pigweed plant response rating [16, 28] | Crabgrass, Large plant response rating [24, 27]
80: Foxtail, Giant plant response rating [4, 27] | Barnyardgrass plant response rating [6, 27] | Pigweed plant response rating (0 to 100 scale) [11, 31] | Corn plant response rating [14, 27] | Plant response rating, Sedge, Umbrella ([19]; 125 g ai/ha, scale 0 to 100)
40: Corn plant response rating [14, 28] | Crabgrass, Large plant response rating [24, 28]
20: Velvetleaf plant response rating (0 to 100 scale) [10, 31] | Wheat plant response rating [15, 28]
0: Wheat plant response rating (0 to 100 scale) [2, 31] | Corn plant response rating (0 to 100 scale) [8, 31] | Plant response rating, Rice [12, 29] | Plant response rating, Rice [12, 30] | Plant response rating, Rice ([12]; 125 g ai/ha, scale 0 to 100) | Plant response rating, Barnyardgrass [20, 29] | Plant response rating, Barnyardgrass [20, 30] | Plant response rating, Barnyardgrass ([20]; 125 g ai/ha, scale 0 to 100) | Plant response rating, Ducksalad [22, 29]
55: Plant response rating, Ducksalad [22, 30]
50: Wheat plant response rating [2, 26]
95: Plant response rating, Ducksalad [3] | Plant response rating, Sedge, Umbrella [23]
70: Foxtail, Giant plant response rating [4, 28] | Foxtail, Giant plant response rating (0 to 100 scale) [13, 31] | Plant response rating, Sedge, Umbrella [19, 30] | Plant response rating, Ducksalad ([22]; 125 g ai/ha, scale 0 to 100)
100: Pigweed plant response rating [11, 26] | Foxtail, Giant plant response rating [13, 26] | Pigweed plant response rating [16, 27] | Crabgrass, Large plant response rating (0 to 100 scale) [17, 31] | Crabgrass, Large plant response rating [17, 26] | Morningglory plant response rating [18, 26] | Morningglory plant response rating [21, 27]
60: Barnyardgrass plant response rating [9, 26] | Wheat plant response rating [15, 27] | Plant response rating, Sedge, Umbrella [19, 29] | Morningglory plant response rating [21, 28]
30: Plant response rating, Barnyardgrass [1] | Velvetleaf plant response rating [5, 28] | Barnyardgrass plant response rating [6, 28] | Corn plant response rating [8, 26]
